The text below walks through data of ChEMBL document CHEMBL6109152, “Harnessing the SPOP E3 Ubiquitin Ligase via a Bridged Proteolysis Targeting Chimera (PROTAC) Strategy for Targeted Protein Degradation” (J Med Chem, 2025).

The source made the active and inactive calls. No cut-off for these calls is given here.

Assay [1] deals with T1, Speckle-type POZ protein-Bromodomain-containing protein 4 (Homo sapiens, UniProt O60885+O43791). Kind of assay: PROTAC activity at SPOP/BRD4-S in human HT-29 cells assessed as induction of BRD4 short isoform degradation at 5 uM incubated for 24 hrs by Western blotting analysis relative to control. Type of assay: cell-based.
T1 sequence (O43791 whole entry, looked up, other chains not shown, canonical isoform): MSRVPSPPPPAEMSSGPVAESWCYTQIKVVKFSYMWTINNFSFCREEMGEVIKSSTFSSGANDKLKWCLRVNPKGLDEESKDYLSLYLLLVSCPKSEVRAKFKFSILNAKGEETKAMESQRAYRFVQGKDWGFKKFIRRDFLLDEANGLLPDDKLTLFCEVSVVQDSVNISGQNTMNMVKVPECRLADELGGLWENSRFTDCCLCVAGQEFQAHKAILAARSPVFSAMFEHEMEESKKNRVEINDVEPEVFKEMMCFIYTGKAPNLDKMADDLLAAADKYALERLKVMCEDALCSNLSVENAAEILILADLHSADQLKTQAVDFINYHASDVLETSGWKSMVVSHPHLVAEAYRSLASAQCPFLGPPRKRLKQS
The subject of assay [2] is HT-29. Kind of assay: Effect on BRD4 long isoform mRNA expression level in human HT-29 cells at 5 uM incubated for 24 hrs by RT-qPCR analysis. Type of assay: functional, cell-based. In general terms: In qPCR the cycle at which signal appears reflects the starting amount.
The test system of assay [3] is HT-29. Kind of assay: Effect on c-MYC mRNA expression level in human HT-29 cells at 5 uM incubated for 24 hrs by RT-qPCR analysis. It counts as functional, cell-based.
Assay [4] has as its system HT-29. Nature of the assay: Antiproliferative activity against human HT-29 cells assessed as reduction in cell growth up to 10 uM incubated for 3 days by WST-8 reagent based assay. Type of assay: functional. Conditions: time 3.0 day. (In general: Formazan colour is commonly taken as a measure of viable cells.)
In assay [5] the test system is HT-29. Nature of the assay: Effect on BRD2 mRNA expression level in human HT-29 cells at 5 uM incubated for 24 hrs by RT-qPCR analysis. It counts as functional, cell-based.
Assay [6] deals with HT-29. Nature of the assay: Effect on BRD4 short isoform mRNA expression level in human HT-29 cells at 5 uM incubated for 24 hrs by RT-qPCR analysis. Type of assay: functional, cell-based.
Assay [7] has as its system HT-29. Nature of the assay: Effect on BRD3 mRNA expression level in human HT-29 cells at 5 uM incubated for 24 hrs by RT-qPCR analysis. It counts as functional, cell-based.
Assay [8] concerns the target T1, Speckle-type POZ protein-Bromodomain-containing protein 4. Kind of assay: PROTAC activity at SPOP/BRD4-S in human HT-29 cells assessed as induction of BRD4 short isoform degradation at 0.5 to 5 uM incubated for 24 hrs by Western blotting analysis. Type of assay: cell-based. Conditions: dose 0.5-5 µM. A general note: Immunoblotting shows a protein as a band on a membrane.

The target is the same in assay [9]. Nature of the assay: PROTAC activity at SPOP/BRD4-L in human HT-29 cells assessed as induction of BRD4 long isoform degradation at 0.5 to 5 uM incubated for 24 hrs by Western blotting analysis. Type of assay: cell-based. Conditions: dose 0.5-5 µM.
Another assay has as its system HEK293T. Kind of assay: Binding affinity to BRD4-S/GLP/SPOP in HEK293T cells assessed as compound-BRD4-GLP-SPOP quaternary complex formation at 20 to 100 uM incubated for 1 hrs by pulldown based Western blot analysis. It counts as cell-based. Conditions: Homo sapiens, dose 20-100 µM.
The test system of assay [10] is HT-29. Nature of the assay: Binding affinity to BRD4-S/GLP/SPOP in human HT-29 cells assessed as compound-BRD4-GLP-SPOP quaternary complex formation at 20 to 100 uM incubated for 1 hrs by pulldown based Western blot analysis. It counts as cell-based. Conditions: dose 20-100 µM.

In the case of `COc1cc2c(NC3CCN(CCCC(=O)NCCCCCCCCCCNC(=O)C[C@H]4N=C(c5ccc(Cl)cc5)c5c(sc(C)c5C)-n5c(C)nnc54)CC3)cc(N3CCOCC3)nc2cc1OCCCN1CCCC1`, the result (in [1]; with HT-29 [2]; in the assay with HT-29 [3]; in the assay on HT-29 [4]; in the assay with HT-29 [5]; with HT-29 [6]) was inactive. In addition, in the assay on HT-29 [7], the result was inactive.
Regarding `COc1cc2c(NC3CCN(CCCC(=O)NCCCCCCCCCNC(=O)C[C@@H]4N=C(c5ccc(Cl)cc5)c5c(sc(C)c5C)-n5c(C)nnc54)CC3)cc(N3CCOCC3)nc2cc1OCCCN1CCCC1`, in assay [8], the result was Active. In [9], the result was inactive.
For `COc1cc2c(NC3CCN(CCCC(=O)NCCCCCCCCNC(=O)C[C@@H]4N=C(c5ccc(Cl)cc5)c5c(sc(C)c5C)-n5c(C)nnc54)CC3)cc(N3CCOCC3)nc2cc1OCCCN1CCCC1`, in that order: “Active” and “inactive”.
As for `COc1cc2c(NC3CCN(CCCC(=O)NCCCCCCCCCCNC(=O)C[C@@H]4N=C(c5ccc(NC(=O)CCOCCOCCOCCOCCOCCOCCNC(=O)CCCC[C@@H]6SC[C@@H]7NC(=O)N[C@@H]76)cc5)c5c(sc(C)c5C)-n5c(C)nnc54)CC3)cc(N3CCOCC3)nc2cc1OCCCN1CCCC1`, the outcome in the assay with HEK293T and in the assay on HT-29 [10] was Active.
On to `COc1cc2c(NC3CCN(CCCC(=O)NCCCCCNC(=O)C[C@@H]4N=C(c5ccc(Cl)cc5)c5c(sc(C)c5C)-n5c(C)nnc54)CC3)cc(N3CCOCC3)nc2cc1OCCCN1CCCC1`, for which the result in assay [8] and in assay [9] was inactive.
For `COc1cc2c(NC3CCN(CCCC(=O)NCCNC(=O)C[C@@H]4N=C(c5ccc(Cl)cc5)c5c(sc(C)c5C)-n5c(C)nnc54)CC3)cc(N3CCOCC3)nc2cc1OCCCN1CCCC1`, the result in assay [8] and in assay [9] was inactive.
Consider `COc1cc2c(N(C)C3CCN(CCCC(=O)NCCCCCCCCCCNC(=O)C[C@@H]4N=C(c5ccc(Cl)cc5)c5c(sc(C)c5C)-n5c(C)nnc54)CC3)cc(N3CCOCC3)nc2cc1OCCCN1CCCC1`, for which the outcome (in [1]; with HT-29 [2]; in the assay with HT-29 [3]; in the assay with HT-29 [4]; with HT-29 [5]; with HT-29 [6]) was inactive. Also, the result in the assay with HT-29 [7] was inactive.
As to `COc1cc2c(NC3CCN(CCCC(=O)NCCCCCCNC(=O)C[C@@H]4N=C(c5ccc(Cl)cc5)c5c(sc(C)c5C)-n5c(C)nnc54)CC3)cc(N3CCOCC3)nc2cc1OCCCN1CCCC1`, the outcome in assay [8] and in assay [9] was inactive.
Consider `COc1cc2c(NC3CCN(CCCC(=O)NCCCCNC(=O)C[C@@H]4N=C(c5ccc(Cl)cc5)c5c(sc(C)c5C)-n5c(C)nnc54)CC3)cc(N3CCOCC3)nc2cc1OCCCN1CCCC1`, for which the result in assay [8] and in [9] was inactive.
For the compound `COc1cc2c(NC3CCN(CCCC(=O)NCCCCCCCNC(=O)C[C@@H]4N=C(c5ccc(Cl)cc5)c5c(sc(C)c5C)-n5c(C)nnc54)CC3)cc(N3CCOCC3)nc2cc1OCCCN1CCCC1`, the result in assay [8] and in assay [9] was inactive.
`COc1cc2c(NC3CCN(CCCC(=O)NCCCNC(=O)C[C@@H]4N=C(c5ccc(Cl)cc5)c5c(sc(C)c5C)-n5c(C)nnc54)CC3)cc(N3CCOCC3)nc2cc1OCCCN1CCCC1`: the result in [8] and in [9] was inactive.
